Laboratory results: US8697391B2, “Method of determining cell number or viability using hydroxyethyldisulfide” (priority 2009, dated 2014)

How the values were obtained:
live cells = assay: Toxicity of HEDS to live cells; assay type: cell-based; conditions: live cells reducing HEDS to mercaptoethanol
Excerpt: In a particular embodiment, the assay of the instant invention use hydroxyethyldisulfide (HEDS), a unique non-toxic disulfide, to measure glucose dependent metabolic activity of live cells in vitro. The survival of cells is directly proportional to the conversion of HEDS into mercaptoethanol (ME) by metabolically active live cells. Dead cells fail to convert HEDS into mercaptoethanol. Accordingly, the assays of the instant invention generally encompass contacting cells (e.g., live cells) with HEDS and then monitoring or measuring the amount of extracellular ME. The amount of ME produced from HEDS can be measured in the extracellular medium since ME is extruded out quickly into the extracellular medium. Extracellular ME may be measured, for example, by a dithiobiznitrobenzoic acid (DTNB) assay or High Performance Liquid Chromatography/Electrochemical Detection (HPLC/EC): The cells of the assay may be any cell that produces NADPH, particularly mammalian cells and yeast. The percentage of live cells may be determined by the amount of ME produced.
The ME produced inside the cells is extruded into the extracellular medium. This conversion mediated by the antioxidant system can be measured in the extracellular medium without the need for cellular extract. HPLC electrochemical detector was used to quantify the conversion of HEDS into mercaptoethanol in mammalian cells in tissue culture. […]

human HCT116 cells [1] = assay type: cell-based
human HCT116 cells [2] = tested on: human HCT116 cells
human cells = assay type: cell-based

Molecule	toxic effect on cells (live cells)	HEDS conversion (human HCT116 cells [1])	survival of cells (arsenite toxicity) (human HCT116 cells [2])	decrease of the ME peak (HEDS conversion) (human cells)
OCCSSCCO [HEDS, hydroxyethyldisulfide]	no toxic effect on cells			
arsenite		concentration dependent decrease in HEDS conversion	concentration dependent decrease in the survival	~70%
